The values below come from article PMC11540889, “In Vitro Cytotoxicity of Fluorinated Quaternary Ammonium Salts in Colorectal Cancer Cells and In Silico Pharmacology” (Advances in Pharmacological and Pharmaceutical Sciences, 2024).

The test system of series [1] is SW48 (Dukes' Type C, Grade IV, noninvasive colorectal adenocarcinoma). In words: MTT cytotoxicity, SW48 cells. The settings on record: for CC50: SW48 cells, MTT, 48 h, mean ± SD; for Index of selectivity MCRT / SW48: IS = CC50 MCRT ÷ CC50 SW48; for Index of selectivity PBMC / SW48: IS = CC50 PBMC ÷ CC50 SW48. As for the experimental part: (§1) The compounds were solubilized in dimethyl sulfoxide (DMSO, Fischer Chemical, NJ, USA) at 50,000 μg/mL and stored at −20°C until use. From the stock solution, six serial 1:2 double dilutions of each compound were prepared to start with concentrations of 100, 50, 25, 12.5, 6.25, and 3.125 μg/mL, respectively. 5-FU, one of the conventional drugs to treat CRC [34], was used as an antitumor compound control at concentrations ranging between 800 and 0.625 μM.
(§2) SW948 (Dukes' Type C, Grade III, premetastatic colorectal adenocarcinoma—CCL-237), SW48 (Dukes' Type C, Grade IV, noninvasive colorectal adenocarcinoma—CCL231), and SW620 (Dukes' Type C, Grade IV invasive colorectal adenocarcinoma—CCL227) (American Type Culture Collection Manassas, VA, USA) were maintained in standard conditions at 37°C, without a CO2 atmosphere. PBMCs and MCRT were used as nontumoral control cells. PBMCs were obtained by healthy donors, separated using Histopaque-1077 (Sigma-Aldrich) and cultured in RPMI-1640 medium (Sigma-Aldrich) supplemented with 10% SFB and 1% penicillin/streptomycin [46]. In turn, MCRT were obtained from healthy BALB/c mice; for this, mice were euthanized with CO2 after previous sedation, the colorectal tissue removed, cleaned up, and cut into 2 × 2 mm pieces, suspended in supplemented DMEM, and used immediately after collection. […] Moreover, the inclusion of PBMC also served to assess the systemic toxicity of FQAS.
(§3) The cytotoxic activity of synthesized FQASs and QASs was studied by measuring cell viability/mortality, determined with the MTT (3-(4,5-dimethylthiazol-2-yl)-2,5-diphenyl tetrazole bromide) method (VWR Chemicals and Reagents Avantor), upon exposure of each cell line to six serial dilutions of the different compounds independently. Unexposed cells were included as viability controls, and cells exposed to 5-FU were included as cytotoxicity controls. Briefly, cells were adjusted to 200,000 cells/mL in the corresponding supplemented culture medium, and 100 μL (20,000 cells/well) were dispensed into each 96-well cell culture plate (Nunc, Thermo Fisher Scientific). Twelve hours after seeding the monolayer, 100 μL dilution of each compound was added to each well; the plates containing CRC were incubated at 37°C in the absence of CO2, while plates with PBMCs and MCRT were incubated at 37°C and 5% CO2 atmosphere. For MCRT, each piece was placed into each well of a 96-well plate and exposed to each dilution of the FQASs and QASs. After 48 h of incubation, 30 μL/well of MTT (5 mg/mL) was added, and plates were left at 37°C for 3 h, protected from light. After this time, 100 μL/well of DMSO was added to solubilize the formazan crystals formed. Plates were read at 570 nm on a Varioskan plate reader (Thermo Fisher), and nonspecific absorbance was corrected by subtracting the optical densities (OD) of the blank solutions corresponding to the supplemented culture media (RPMI 1640, DMEM, or L-15 media) and 0.5% DMSO. Each concentration of the FQASs, QASs, and controls was evaluated in duplicate in three independent experiments.
(§4) The percentages of viability (equation (1)) and mortality (equation (2)) were calculated with the net OD:(1) % viability=OD treated cell÷nontreated cells×100, (2) % mortality=100−% viability.
(§5) The %mortality data for each compound concentration was recorded, and the median cytotoxic concentration (CC50), corresponding to the concentration at which 50% of cell death occurs, was calculated using GraphPad Prism 8 software (GraphPad, Software, Inc., La Jolla, CA, USA). […] Lastly, the index of selectivity (IS) was calculated by dividing the CC50 value obtained for control cells (MCRT and PBMCs) by the CC50 value obtained for each CRC cell phenotype using the formula: IS = CC50 (MCRT or PBMC) ÷ CC50 (SW948, SW48 or SW620).

In series [2] the test system is CRC cell lines SW48, SW620, and SW948. Briefly: MTT cytotoxicity across CRC cell lines (pooled statements, selectivity between lines). In kind it is cell-based. The settings on record: for Index of selectivity SW48 vs. SW620: IS = CC50 SW48 ÷ CC50 SW620; for Index of selectivity SW948 vs. SW48: IS = CC50 SW948 ÷ CC50 SW48; for Index of selectivity SW948 vs. SW620: IS = CC50 SW948 ÷ CC50 SW620. On the procedure: as §1, §2, §3, §4
The %mortality data for each compound concentration was recorded, and the median cytotoxic concentration (CC50), corresponding to the concentration at which 50% of cell death occurs, was calculated using GraphPad Prism 8 software (GraphPad, Software, Inc., La Jolla, CA, USA). […]

In series [3] the test system is SW948 (Dukes' Type C, Grade III, premetastatic colorectal adenocarcinoma). Briefly: MTT cytotoxicity, SW948 cells. The settings on record: for CC50: SW948 cells, MTT, 48 h, mean ± SD; for Index of selectivity MCRT / SW948: IS = CC50 MCRT ÷ CC50 SW948; for Index of selectivity PBMC / SW948: IS = CC50 PBMC ÷ CC50 SW948. As for the experimental part:
as §1, §2, §3, §4, §5

For series [4], the system named is peripheral blood mononuclear cells (PBMC). In words: MTT cytotoxicity, peripheral blood mononuclear cells. In kind it is cell-based. The settings on record: PBMCs. On the procedure: as §1, §2, §3, §4, §5
Assay in series [5]: as above
The settings on record: human, peripheral blood mononuclear cells (PBMC); PBMC, nontumoral control, MTT, 48 h, mean ± SD. In kind it is cell-based. On the procedure:
as §1, §2, §3, §4, §5

For series [6], the system named is SW620 (Dukes' Type C, Grade IV invasive colorectal adenocarcinoma). Briefly: MTT cytotoxicity, SW620 cells. The settings on record: for CC50: Homo sapiens; for Index of selectivity MCRT / SW620: IS = CC50 MCRT ÷ CC50 SW620; for Index of selectivity PBMC / SW620: IS = CC50 PBMC ÷ CC50 SW620. On the procedure: as §1, §2, §3, §4, §5
Series [7] in a line: Ex vivo MTT cytotoxicity, healthy murine colorectal tissue. In kind it is cell-based, BALB/c mice. As to conditions: BALB/c, mouse, healthy murine colorectal tissue (MCRT) pieces, ex vivo, nontumoral control, MTT, 48 h, mean ± SD. On the procedure: as §1, §2, §3, §4, §5
The subject of series [8] is healthy murine colorectal tissue (MCRT). Described as above. In kind it is cell-based, BALB/c mice. As for the experimental part: as §1, §2, §3, §4, §5

Usually CC50 stands for the concentration giving 50% cytotoxicity. Low readings indicate greater toxicity to the cells, high ones lower toxicity to the cells. As to `C[N+](C)(CI)CCCC=C(c1ccccc1)c1ccccc1` [Compound 15], in series [1] (Homo sapiens, SW48, 48 h), it took 124 ± 2.3 µM to reach half-maximal cytotoxicity (CC50). In series [1], the “Index of selectivity MCRT / SW48” value is 2.1 and the “Index of selectivity PBMC / SW48” value amounted to 0.2. In addition, in series [2], the “Index of selectivity SW48 vs. SW620” value was 0.8, the “Index of selectivity SW948 vs. SW48” value is 0.8 and the “Index of selectivity SW948 vs. SW620” value is recorded as 0.6. In addition, the CC50 in series [3] (Homo sapiens, SW948, 48 h) is 98.2 ± 4.3 µM. In series [3], the “Index of selectivity MCRT / SW948” value amounted to 2.6 and the “Index of selectivity PBMC / SW948” value was determined as 0.3. In addition, the cytotoxicity in words result in series [4] is given as “highly cytotoxic”. In addition, the CC50 at 48 h in series [5] is 29.3 ± 1.4 µM. This compound also had a CC50 in series [6] (48 h) of 158 ± 2.3 µM. In addition, in series [6], the “Index of selectivity MCRT / SW620” value is given as 1.6 and the “Index of selectivity PBMC / SW620” value is reported as 0.2. This compound showed a CC50 at 48 h in series [7] of 256 ± 14 µM. The cytotoxicity in words entry in series [8] is “moderate cytotoxicity”.

In the case of `C[N+](C)(CI)CCCCC=C(c1ccccc1)c1ccccc1` [Compound 16], the CC50 in series [1] (Homo sapiens, SW48, 48 h) was 65.2 ± 3.7 µM. In series [1], the “Index of selectivity MCRT / SW48” value is 2.1 and the “Index of selectivity PBMC / SW48” value is 0.6. Besides, in series [2], the “Index of selectivity SW48 vs. SW620” value is listed as 0.9, the “Index of selectivity SW948 vs. SW48” value is 1.1 and the “Index of selectivity SW948 vs. SW620” value came to 1.0. In series [3] (Homo sapiens, SW948, 48 h), the half-maximal cytotoxic concentration (CC50) came to 71 ± 12.4 µM. In series [3], the “Index of selectivity MCRT / SW948” value worked out at 1.9 and the “Index of selectivity PBMC / SW948” value is listed as 0.6. Moreover, the cytotoxicity in words entry in series [4] is “highly cytotoxic”. For the same compound, the CC50 at 48 h in series [5] turned out to be 38.8 ± 5.6 µM. The CC50 in series [6] (48 h) was 72.9 ± 4.2 µM. Moreover, in series [6], the “Index of selectivity MCRT / SW620” value worked out at 1.9 and the “Index of selectivity PBMC / SW620” value is reported as 0.5. Besides, half-maximal cytotoxicity in series [7] (CC50 at 48 h) was put at 135 ± 11.8 µM. Besides, the cytotoxicity in words entry in series [8] is given as “noncytotoxic”.

For `C[N+](C)(CCl)CCCC=C(c1cccc(C(F)(F)F)c1)c1cccc(C(F)(F)F)c1` [Compound 5], half-maximal cytotoxicity in series [1] (Homo sapiens, SW48, 48 h) (CC50) was put at 43.5 µM. Further, in series [1], the “Index of selectivity MCRT / SW48” value is listed as 2.3; the “Index of selectivity PBMC / SW48” value is on record as 0.66; the midpoint of cytotoxicity, the CC50, lay at 52 ± 9.2 µM. In addition, in series [2], the “Index of selectivity SW48 vs. SW620” value worked out at 2.1, the “Index of selectivity SW948 vs. SW48” value was 0.8 and the “Index of selectivity SW948 vs. SW620” value is given as 1.8. This compound registered a CC50 in series [3] (Homo sapiens, SW948, 48 h) of 24.5 µM. Besides, in series [3], the “Index of selectivity MCRT / SW948” value is listed as 2.8; the “Index of selectivity PBMC / SW948” value was 0.8; the midpoint of cytotoxicity, the CC50, lay at 43.5 ± 4 µM. In series [5], this compound showed a CC50 at 48 h of 34.8 ± 6 µM. This compound also registered a CC50 in series [6] (48 h) of 24.5 ± 2.3 µM. This compound gave a half-maximal cytotoxic concentration (CC50) in series [6] (SW-620) of 52 µM. In series [6], the “Index of selectivity MCRT / SW620” value amounted to 4.9 and the “Index of selectivity PBMC / SW620” value is on record as 1.4. Besides, in series [7], half-maximal cytotoxicity (CC50 at 48 h) was put at 121 ± 5.4 µM.

For the compound `C[N+](C)(CCl)CCCCC=C(c1ccc(C(F)(F)F)cc1)c1ccc(C(F)(F)F)cc1` [Compound 12], in series [1], the “cytotoxicity level (high/moderate/low)” value is “Moderate”, the “Index of selectivity MCRT / SW48” value turned out to be 2.3 and the “Index of selectivity PBMC / SW48” value was 0.8. The same compound displayed a CC50 in series [1] (Homo sapiens, SW48, 48 h) of 48 ± 5.1 µM. For the same compound, in series [2], the “Index of selectivity SW48 vs. SW620” value was 3.2, the “Index of selectivity SW948 vs. SW48” value stood at 0.5 and the “Index of selectivity SW948 vs. SW620” value was 1.7. Moreover, in series [3], the “cytotoxicity level (high/moderate/low)” value is given as “High”, the “Index of selectivity MCRT / SW948” value was found to be 4.4 and the “Index of selectivity PBMC / SW948” value was found to be 1.6. For the same compound, the CC50 in series [3] (Homo sapiens, SW948, 48 h) worked out at 25 ± 4.8 µM. In series [5], this compound returned a CC50 at 48 h of 40.5 ± 9.5 µM. Also, in series [6], the “cytotoxicity level (high/moderate/low)” value is given as “High”, the “Index of selectivity MCRT / SW620” value is reported as 7.3 and the “Index of selectivity PBMC / SW620” value was 2.7. This compound also had a CC50 in series [6] (48 h) of 15.1 ± 1.5 µM. The same compound came in with a CC50 at 48 h in series [7] of 111 ± 16.7 µM.
